The results in this text go back to patent US20070049514A1, “Resonance modulator for diagnosis and therapy” (priority 2003, published 2007).

Where two headings read alike, the source gives them in different places.

Assay [1] concerns malignant squamous cell cancer (SCCA-HM). Kind of assay: BDP-DNP on squamous cell cancer with T-lymphocytes in tissue culture. Format: cell-based. From the text: FIG. 15 describes the impact of BDP-DNP on cell growth for malignant squamous cell cancer (SCCA-HM) growing in culture (pre-post Rx). On the left are large lacey star shaped squamous 15 cancer cells associated with small white clumps of naïve T-lymphocytes. […] The dark background seen on the right is due to the color of the drug. All the fluffy white cells are large clumps of activated lymphocytes.

Assay [2] concerns lymphocytes in culture. Nature of the assay: Lymphocyte activation, tritiated thymidine uptake. Format: cell-based. The following applies: uptake of tritiated thymidine. How it is done:
(§1) Once candidates have been selected as potential resonance modulators, they can be easily assayed to determine whether they induce lymphocyte blastogenesis and activate lymphocytes. Such an assay is found in Morgan et al., Anticancer Research 13:1763-1768 (1993), which is incorporated by reference. See also Janossy et al., Clin. Exp. Immunol. 14:581-596 (1973). Briefly, uptake of [^3]thymidine was measured for lymphocytes in culture. Lymphocytes were cultured in RPMI-1640 tissue culture medium supplemented with 10% fetal bovine serum (FBS). Following stimulation with the resonance modulator, tritiated thymidine (2-20 μCi/ml, specific activity 2 Ci/mmol) was added to the cells and incubated with them. The uptake of [^3]thymidine was stopped by the addition of cold 10% trichloroacetic acid after a selected period of time, and the radioactivity of the samples measured in a scintillation counter. The % lymphoblast was determined by counting the number of blasts per high powered field (hpf) while % activation was determined by uptake of the tritiated thymidine. The increase voltage was measured with an oscilloscope as in Example 7.

In assay [3] the test system is lymphocytes in culture. Nature of the assay: Lymphocyte blastogenesis, blasts per high powered field. Format: cell-based. The following applies: number of blasts per high powered field. How it is done:
as §1

The next assay concerns the target T1, PTP CD45 receptor (Homo sapiens, UniProt P08575).
T1 sequence (P08575 26-1306): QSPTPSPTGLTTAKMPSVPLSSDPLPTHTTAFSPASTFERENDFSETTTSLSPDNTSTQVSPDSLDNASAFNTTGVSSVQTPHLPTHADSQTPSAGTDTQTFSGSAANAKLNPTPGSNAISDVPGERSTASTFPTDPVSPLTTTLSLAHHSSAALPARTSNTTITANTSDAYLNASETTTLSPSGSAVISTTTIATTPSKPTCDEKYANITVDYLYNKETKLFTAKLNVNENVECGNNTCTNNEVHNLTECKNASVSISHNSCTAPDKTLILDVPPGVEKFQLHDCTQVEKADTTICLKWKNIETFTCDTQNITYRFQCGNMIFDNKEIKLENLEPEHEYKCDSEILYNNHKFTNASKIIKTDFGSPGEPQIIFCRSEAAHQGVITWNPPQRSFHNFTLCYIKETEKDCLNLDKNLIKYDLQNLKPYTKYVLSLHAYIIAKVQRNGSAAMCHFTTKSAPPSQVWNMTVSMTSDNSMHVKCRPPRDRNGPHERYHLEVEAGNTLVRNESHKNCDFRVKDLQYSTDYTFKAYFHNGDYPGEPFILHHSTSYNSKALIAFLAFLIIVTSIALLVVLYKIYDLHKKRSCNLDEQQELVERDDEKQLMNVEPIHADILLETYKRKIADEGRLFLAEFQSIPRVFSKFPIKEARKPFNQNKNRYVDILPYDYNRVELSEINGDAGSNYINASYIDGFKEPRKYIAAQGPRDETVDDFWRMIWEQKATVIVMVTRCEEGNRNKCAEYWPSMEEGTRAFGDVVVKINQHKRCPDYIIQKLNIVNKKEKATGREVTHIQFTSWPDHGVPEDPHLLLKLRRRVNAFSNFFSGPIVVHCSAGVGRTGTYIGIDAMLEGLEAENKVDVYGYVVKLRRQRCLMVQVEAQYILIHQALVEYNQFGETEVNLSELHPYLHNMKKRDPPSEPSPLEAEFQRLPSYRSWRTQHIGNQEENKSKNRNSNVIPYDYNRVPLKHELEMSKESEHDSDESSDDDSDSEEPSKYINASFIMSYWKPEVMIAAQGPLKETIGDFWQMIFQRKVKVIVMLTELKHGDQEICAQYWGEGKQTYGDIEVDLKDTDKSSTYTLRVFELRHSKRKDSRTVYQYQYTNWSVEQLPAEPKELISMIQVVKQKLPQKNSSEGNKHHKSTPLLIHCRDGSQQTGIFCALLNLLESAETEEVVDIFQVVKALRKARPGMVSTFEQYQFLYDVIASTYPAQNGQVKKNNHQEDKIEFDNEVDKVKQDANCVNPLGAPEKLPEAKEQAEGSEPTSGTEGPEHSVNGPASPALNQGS
Kind of assay: Binding to and up-regulation of PTP CD45 receptor.

Setting [4] is: 0.4 mcg/mL, 24 hours incubation.

Turning to `O=[N+]([O-])c1ccc(NN=C2C(=Cc3ccccc3)CCCC2=Cc2ccccc2)c([N+](=O)[O-])c1` [Compound 38, 2,6-Dibenzylidenecyclohexanone-2,4-dinitrophenylhydrazone], in assay [1] (setting [4]), the “cancer cells after treatment” value is recorded as “No cancer cells are detected” and the “effect on naïve T-lymphocytes in the culture” value was “impressive stimulation”. For the same compound, the “immune modulating anticancer activities vs. A-007” value in assay [1] (relative to A-007) came to 100 fold. Besides, the “% Activation” value in the assay with lymphocytes in culture [2] amounted to 100%. In addition, in the assay on lymphocytes in culture [3], the “% Lymphoblast” value was determined as 100%. Further, on PTP CD45 receptor, the “binding affinities to PTP CD45 receptor” value is given as “improved binding affinities” and the “effect on PTP CD45 receptor” value is “upregulates the receptor”. In addition, on PTP CD45 receptor (listed as structure 38), the “binding affinities to PTP CD45 receptor” value is listed as “excellent binding affinities”.
As to `O=C1c2ccccc2C(=NNc2ccc([N+](=O)[O-])cc2[N+](=O)[O-])c2ccc(O)c(O)c21` [DNPA, 10-[(2,4-dinitrophenyl)hydrazono]-1,2-dihydroxy-10H-anthracen-9-one], in the assay on lymphocytes in culture [2], the “% Activation” value was determined as 75%. The “% Lymphoblast” value in the assay on lymphocytes in culture [3] was determined as 50%.
As to `CC(C)C(=O)Nc1ccc([N+](=O)[O-])c(C(F)(F)F)c1` [Fludamide, reference compound], the “% Activation” value with lymphocytes in culture [2] came to 0%. Also, in the assay on lymphocytes in culture [3], the “% Lymphoblast” value stood at 0%.
